Experimental data reported in publication PMC5554137, “Evaluation of novel factor Xa inhibitors from Oxya chinensis sinuosa with anti-platelet aggregation activity” (Scientific Reports, 2017).

Columns and labels:
[1] = target: T1, α-Thrombin (Homo sapiens, UniProt P00734); experiment: Chromogenic substrate assay, Ki determination, α-Thrombin; type: biochemical; conditions: for Ki: substrate S-2238
T1 construct: FXa converts prothrombin to thrombin; purchased Haematologic Technologies (Essex Junction, VT, USA)
Procedure: (§1) The inhibitor (I) constants (Ki) were determined for the inhibition of a series of human enzymes (FXa, thrombin, trypsin, plasmin, protein Ca, streptokinase, tPA, and urokinase) by each compound. Chromogenic substrate assays were performed using a Labsystems IEMS (Cergy Pontoise, France) microtiter plate reader. In each assay, the compound was tested at a minimum of seven concentrations in duplicate to obtain an inhibition curve. Assays were performed according to the following general procedure. In a 96-well microtiter plate, 25 μL of compound, inhibitor solution or buffer was added to 50 μL of substrate. A volume of 25 μL of enzyme solution was added just before the plate was placed in the microtiter plate reader for 1 h at 37 °C. The hydrolysis of the substrate yields p-nitroaniline, which was continuously monitored spectrophotometrically at 405 nm. Data were collected and the initial rate of substrate hydrolysis [Vo (mOD/minute)] was calculated. Following Michaelis-Menten kinetics, the affinity of the enzyme for the substrate, in the absence of the inhibitor (Km) and in the presence of an inhibitor (Kp), was determined to be the negative inverse x-intercept of Lineweaver–Burk plots. The dissociation constant for inhibition (Ki) was calculated using the following equation: Ki = (Km·[I])/(Kp − Km) as described by Williams and Morrison[40].

[2] = system: Trypsin; experiment: Chromogenic substrate assay, Ki determination, Trypsin; type: biochemical, human; conditions: for Ki: substrate S-2222
Procedure: as §1

[3] = target: Urokinase (Homo sapiens, UniProt P00749); experiment: Chromogenic substrate assay, Ki determination, Urokinase; type: biochemical; conditions: for Ki: substrate S-2444
Procedure: as §1

[4] = target: tPA (Homo sapiens, UniProt P00750); experiment: Chromogenic substrate assay, Ki determination, tPA; type: biochemical; conditions: for Ki: substrate S-2228
Procedure: as §1

[5] = target: T2, FXa (Homo sapiens, UniProt P00742); experiment: Chromogenic substrate assay, Ki determination, Factor Xa; type: biochemical; conditions: for Ki: substrate S-2765 (Table 3), mean ± SD (n = 5)
T2 construct: purchased Haematologic Technologies (Essex Junction, VT, USA)
Procedure: as §1

[6] = target: T2, FXa; experiment: Inhibition of amidolytic activity of FXa toward S-2222 (Michaelis-Menten, Lineweaver-Burk; with or without TFPI); type: biochemical; conditions: for type of inhibition of FXa (Lineweaver-Burk plots) / slope of inhibition activity plot: S-2222; for slope of inhibition activity plot: FXa; for Ki: substrate S-2222
Procedure: To elucidate the mechanisms responsible for inhibition of coagulation and platelet aggregation by compounds 1–4, inhibition of FXa activity was determined using chromogenic substrates. […] We observed a decrease in Vmax, with no effect on the Km of FXa toward S-2222 in the presence of compound 1. […] We also observed a slope of 0.401 for the control without compound 2, and slopes of 0.442 and 0.465 for compound 2 at concentrations of 2 and 5 µM, respectively. […] We observed a decrease in Vmax, with no effect on the Km of FXa toward S-2222 in the presence of compound 2. […] Inhibition activity plots were obtained for different concentrations of compound 3, showing a slope of 0.388 for the control without compound 3, and slopes of 0.408 and 0.464 for compound 3 at concentrations of 2 and 5 µM, respectively. […] We also observed a slope of 0.363 for the control without compound 4, and slopes of 0.376 and 0.398 for compound 4 at concentrations of 2 and 5 µM, respectively. […] We observed a decrease in Vmax, with no effect on the Km of FXa toward S-2222 in the presence of compound 4.
Figure 6 Effects of compounds 1–4 on inhibition and production of FXa. […] The plots represent means of three independent measurements. (E) Human umbilical vein endothelial cells (HUVECs) were pre-incubated with the indicated concentration of each compound for 10 min. HUVECs stimulated with tumor necrosis factor-α (TNF-α, 10 ng/mL for 6 h) were incubated with FVIIa (10 nM) and FX (175 nM) in the absence or presence of anti-TF IgG (25 µg/mL). FXa production was determined as described in the “ Supplementary Materials and Methods” section. D = 0.2% DMSO used as the vehicle control. (F) Inhibition of FXa by each compound (5 μM) with or without TFPI (2 nM) was monitored using a chromogenic assay. ^* p < 0.05 vs. TNF-α alone (E) or each compound (F) alone, analyzed via one-way ANOVA, followed by Tukey multiple comparison testing.
Each compound with or without TFPI was dissolved in 50 mM Tris-HCl buffer (pH 7.4) containing 7.5 mM EDTA and 150 mM NaCl. Following a 2-min incubation at 37 °C, FXa solution (150 μL, 1 U/mL) was added, followed by incubation at 37 °C for 1 min. S-2222 (an FXa substrate, 150 μL, 1.5 mM) solution was subsequently added, and the absorbance at 405 nm was monitored for 20 min using a spectrophotometer (TECAN, Männedorf, Switzerland). The absorbance-time curve and the slope of the curve (Vi) were used to represent the activity of the enzyme. Distilled water served as a control (the slope of curve V0). The inhibitory effect was calculated according to equation (1):1 Inhibitoryrate(%)=(V0−Vi)/V0×100 where V0 represents the slope of the vehicle and Vi represents the slope of the samples.

[7] = system: C57BL/6 mice; experiment: Tail bleeding time; type: in vivo; conditions: tail-cutting assay, mean ± SD, n = 10
Procedure: Figure 4 Effects of compounds 1–4 on clotting and bleeding time. (A) One hour after administration (intravenous injection) of compound 1 (white box), 2 (light gray box), 3 (dark gray box), or 4 (black box), blood was collected from the mice and platelet-poor plasma (PPP) was obtained by centrifugation at 2,000 × g for 10 min at room temperature to test ex vivo activated partial thromboplastin time (aPTT). (B) Each group received a daily intravenous injection of the indicated compound for four consecutive days. Fifteen minutes after the last administration, blood samples were collected and in vivo aPTT was measured. (C) Fifteen minutes after administration of each compound or aspirin (4.5 or 9 mg/kg for 30 min) or the vehicle, tail tips (3 mm long) were cut from each mouse, and the remaining tail was immediately immersed into saline at 37 °C. Accumulated bleeding times (including periods of re-bleeding) were recorded. D = 0.2% DMSO used as the vehicle control. Data are presented as means ± SD of three independent experiments. *p < 0.05 vs. vehicle alone, analyzed by one-way ANOVA, followed by Tukey multiple comparison testing.
To assess bleeding risk incurred by compounds 1–4, we measured bleeding time in mice treated with each compound (up to 30 µM/mouse) by using a tail-cutting assay; the concentration used was three-fold higher than the doses used for the in vivo anti-thrombotic studies. Aspirin-treated mice (9 mg/kg) served as positive controls. […] However, the bleeding time in mice treated with compounds 1–4 was shorter than that observed in mice treated with aspirin ([…], mean ± SD, n = 10). The dose required to avoid thrombus formation and to protect against paralysis or death in mice was determined to be 5 µM per mouse (Fig. 7C).
Tail bleeding times were measured using the method described by Dejana et al.[37]. Briefly, C57BL/6 mice were fasted overnight prior to the experiments. […] after the i.v. administration of each compound, the tails of the mice were transected […] from their tips. Bleeding time was defined as the time elapsed until bleeding stopped. Bleeding times that exceeding 15 min were recorded as 15 min.

[8] = target: Protein Ca (Homo sapiens, UniProt P04070); experiment: Chromogenic substrate assay, Ki determination, Protein Ca; type: biochemical; conditions: for Ki: substrate S-2366
Procedure: as §1

[9] = system: Streptokinase (Homo sapiens); experiment: Chromogenic substrate assay, Ki determination, Streptokinase; type: biochemical; conditions: for Ki: substrate S-2251
Procedure: as §1

[10] = target: Plasmin (Homo sapiens, UniProt P00747); experiment: Chromogenic substrate assay, Ki determination, Plasmin; type: biochemical; conditions: for Ki: substrate S-2251
Procedure: as §1

T2 sequence (P00742 235-488 limits assumed): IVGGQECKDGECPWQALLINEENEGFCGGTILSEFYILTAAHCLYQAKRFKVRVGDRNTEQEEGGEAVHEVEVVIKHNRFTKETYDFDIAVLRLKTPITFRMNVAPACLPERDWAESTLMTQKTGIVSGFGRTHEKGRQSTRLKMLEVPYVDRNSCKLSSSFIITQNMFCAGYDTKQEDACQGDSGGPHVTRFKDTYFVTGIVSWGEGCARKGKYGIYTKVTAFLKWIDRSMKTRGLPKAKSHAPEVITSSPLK
T2 sequence (P00742 41-179 limits assumed): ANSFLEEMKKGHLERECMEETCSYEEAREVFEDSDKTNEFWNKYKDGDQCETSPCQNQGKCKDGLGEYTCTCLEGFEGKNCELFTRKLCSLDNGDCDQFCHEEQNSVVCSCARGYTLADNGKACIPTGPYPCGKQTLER
Chain of Streptokinase (Homo sapiens) (P00747 581-810 limits assumed): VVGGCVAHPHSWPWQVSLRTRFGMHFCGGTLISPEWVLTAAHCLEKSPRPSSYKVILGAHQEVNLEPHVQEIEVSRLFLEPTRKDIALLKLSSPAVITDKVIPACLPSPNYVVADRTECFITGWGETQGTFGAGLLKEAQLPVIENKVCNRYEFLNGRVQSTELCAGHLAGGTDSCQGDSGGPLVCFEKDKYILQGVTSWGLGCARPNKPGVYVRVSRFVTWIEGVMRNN
Chain of Plasmin (P00747 581-810 limits assumed): as above
Chain of Plasmin (P00747 97-580 limits assumed): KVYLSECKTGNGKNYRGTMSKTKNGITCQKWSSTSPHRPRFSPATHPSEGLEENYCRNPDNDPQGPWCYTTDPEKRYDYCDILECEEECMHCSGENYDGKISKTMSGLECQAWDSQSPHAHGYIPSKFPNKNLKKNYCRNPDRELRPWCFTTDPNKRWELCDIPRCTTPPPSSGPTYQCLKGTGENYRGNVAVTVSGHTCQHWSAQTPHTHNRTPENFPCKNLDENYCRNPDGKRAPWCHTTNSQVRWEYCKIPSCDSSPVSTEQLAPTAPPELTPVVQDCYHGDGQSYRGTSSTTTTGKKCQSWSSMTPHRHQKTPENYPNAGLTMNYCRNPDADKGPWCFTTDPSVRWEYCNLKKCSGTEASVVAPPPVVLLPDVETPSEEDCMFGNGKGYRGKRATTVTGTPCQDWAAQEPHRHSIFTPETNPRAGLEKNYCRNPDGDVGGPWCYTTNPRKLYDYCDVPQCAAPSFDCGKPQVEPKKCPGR
Chain of Protein Ca (P04070 212-461 limits assumed): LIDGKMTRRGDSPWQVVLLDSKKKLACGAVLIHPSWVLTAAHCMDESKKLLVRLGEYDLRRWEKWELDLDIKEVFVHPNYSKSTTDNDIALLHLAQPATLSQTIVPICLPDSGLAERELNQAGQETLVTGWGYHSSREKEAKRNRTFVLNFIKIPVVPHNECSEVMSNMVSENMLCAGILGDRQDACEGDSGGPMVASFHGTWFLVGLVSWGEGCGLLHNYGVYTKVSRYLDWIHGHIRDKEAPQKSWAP
Chain of Protein Ca (P04070 43-197 limits assumed): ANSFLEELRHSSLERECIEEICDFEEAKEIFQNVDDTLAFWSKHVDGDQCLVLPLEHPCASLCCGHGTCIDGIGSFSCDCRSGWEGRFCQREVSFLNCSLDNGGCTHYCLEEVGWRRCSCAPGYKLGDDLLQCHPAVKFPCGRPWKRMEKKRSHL
Chain of tPA (P00750 36-562): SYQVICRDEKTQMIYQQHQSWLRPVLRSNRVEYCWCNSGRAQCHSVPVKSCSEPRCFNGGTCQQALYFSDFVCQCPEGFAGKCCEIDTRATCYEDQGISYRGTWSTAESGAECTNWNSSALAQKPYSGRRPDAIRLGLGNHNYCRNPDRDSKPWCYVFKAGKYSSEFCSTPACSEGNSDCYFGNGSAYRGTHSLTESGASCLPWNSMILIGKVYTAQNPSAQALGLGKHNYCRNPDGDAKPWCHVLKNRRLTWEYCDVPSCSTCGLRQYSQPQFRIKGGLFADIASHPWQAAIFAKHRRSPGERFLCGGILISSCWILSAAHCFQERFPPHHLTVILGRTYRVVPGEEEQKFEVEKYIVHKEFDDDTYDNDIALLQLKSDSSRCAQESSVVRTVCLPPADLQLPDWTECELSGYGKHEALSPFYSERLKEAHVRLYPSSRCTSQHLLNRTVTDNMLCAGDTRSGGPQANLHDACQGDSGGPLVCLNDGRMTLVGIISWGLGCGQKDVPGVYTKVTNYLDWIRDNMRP

SMILES | Ratio = Ki enzyme/Ki Factor Xa, α-Thrombin [1] | Ki [1] [µM] | Ratio = Ki enzyme/Ki Factor Xa, Trypsin [2] | Ki [2] [µM] | Ratio = Ki enzyme/Ki Factor Xa, Urokinase [3] | Ki [3] [µM] | Ratio = Ki enzyme/Ki Factor Xa, tPA [4] | Ki [4] [µM] | Ratio = Ki enzyme/Ki Factor Xa, Factor Xa [5] | Ki [5] [µM] | Km of FXa toward S-2222 in the presence of compound [6] | Vmax of FXa toward S-2222 in the presence of compound [6] | type of inhibition of FXa (Lineweaver-Burk plots) [6] | slope of inhibition activity plot ([6]; compound at 2 µM) | slope of inhibition activity plot ([6]; compound at 5 µM) | Ki [6] [µM] | Ratio = Ki enzyme/Ki Factor Xa, Protein Ca [8] | Ki [8] [µM] | Ratio = Ki enzyme/Ki Factor Xa, Streptokinase [9] | Ki [9] [µM] | further results
CC(=O)NCCc1ccc2c(c1)O[C@@H](NC(C)=O)[C@@H](c1ccc(O)c(O)c1)O2 [Compound 2, (2 R,3 R)-2-(3′,4′-dihydroxyphenyl)-3-acetylamino-6-(N-acetyl-2″-aminoethyl)-1,4-benzodioxane] | >100 | > 500 | >100 | > 500 | >100 | > 500 | >100 | > 500 | 1 | 4.13 ± 0.43 | no effect | decrease | noncompetitive inhibition | 0.442 | 0.465 | 4.13 | >100 | > 500 | >100 | > 500 | bleeding time ([7]; mice treated with 10 µM): 12.5 ± 1.2 min; bleeding time ([7]; mice treated with 30 µM): 13.5 ± 1.1 min; Ratio = Ki enzyme/Ki Factor Xa, Plasmin [10]: >100; Ki [10]: > 500 µM
CC(=O)NCCc1ccc2c(c1)O[C@H](NC(C)=O)[C@@H](c1ccc(O)c(O)c1)O2 [Compound 3, (2 R,3 S)-2-(3′,4′-dihydroxyphenyl)-3-acetylamino-6-(N-acetyl-2″-aminoethyl)-1,4-benzodioxane] | >100 | > 500 | >100 | > 500 | >100 | > 500 | >100 | > 500 | 1 | 4.45 ± 0.37 | no effect | decrease | noncompetitive inhibition | 0.408 | 0.464 | 4.45 | >100 | > 500 | >100 | > 500 | bleeding time ([7]; mice treated with 10 µM): 12.1 ± 1.1 min; bleeding time ([7]; mice treated with 30 µM): 12.3 ± 1.3 min; Ratio = Ki enzyme/Ki Factor Xa, Plasmin [10]: >100; Ki [10]: > 500 µM
CC(=O)NCCc1ccc2c(c1)O[C@H](c1ccc(O)c(O)c1)[C@@H](NC(C)=O)O2 [Compound 4, (2 R,3 S)-2-(3′,4′-dihydroxyphenyl)-3-acetylamino-7-(N-acetyl-2″-aminoethyl)-1,4-benzodioxane] | >100 | > 500 | >100 | > 500 | >100 | > 500 | >100 | > 500 | 1 | 4.72 ± 0.31 | no effect | decrease | noncompetitive inhibition | 0.376 | 0.398 | 4.72 | >100 | > 500 | >100 | > 500 | Ratio = Ki enzyme/Ki Factor Xa, Plasmin [10]: >100; Ki [10]: > 500 µM
